In patent US11939319B2, “Pyridinyl and pyrazinyl-(asa)indolsulfonamides” (UCB Pharma GmbH, priority 2018, dated 2024):

Columns and labels:
GPR17 [1] = target: T1, GPR17 (Homo sapiens, UniProt Q13304); conditions: WO 2005/103291; cited from earlier work
Target sequence in this assay (Q13304 whole entry, species assumed): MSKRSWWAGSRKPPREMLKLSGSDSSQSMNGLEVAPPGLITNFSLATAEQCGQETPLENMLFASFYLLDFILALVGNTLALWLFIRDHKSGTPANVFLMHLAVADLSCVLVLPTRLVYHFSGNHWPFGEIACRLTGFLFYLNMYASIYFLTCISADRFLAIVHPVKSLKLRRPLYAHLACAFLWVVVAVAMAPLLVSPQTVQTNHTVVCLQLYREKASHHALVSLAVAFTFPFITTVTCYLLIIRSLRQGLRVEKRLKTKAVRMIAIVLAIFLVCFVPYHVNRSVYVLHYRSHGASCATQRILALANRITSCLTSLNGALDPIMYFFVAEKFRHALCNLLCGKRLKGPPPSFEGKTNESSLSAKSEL

GPR17 [2] = target: T1, GPR17; test: Calcium mobilization functional assay (Ca2+ assay) in CHO hGPR17 cells; assay type: cell-based; design: host or cells: Flp-In T-REx CHO cells, expression induced with doxycycline; conditions: inhibition of 50 nM MDL29,951 (GPR17 agonist), activity range, read-out: Ca^2+ assay pIC50 (converted)
Method: (§1) Flp-In T-REx CHO cells stably expressing human GPR17 receptor (CHO hGPR17) from Evi Kostenis' lab (Bonn University, Germany) were cultured at 37° C. in a humidified atmosphere of 5% CO2. Cells were grown in DMEM with Nutrient Mixture F-12 supplemented with hygromycin B (500 μg/ml) and blasticidin (30 μg/ml). Expression from the Flp-In locus was induced by treatment with doxycycline (1 μg/ml) for 16-20 h prior assays.
GPR17 is a G-protein coupled receptor. GPR17 activation triggers Gq-type G-protein signaling resulting in endoplasmic reticulum calcium (Ca^2+) stores release in cytosol which can be measured using Calcium 5 dye, a fluorescent indicator dye of cytosolic Ca^2+ levels. The compounds of the present invention were assessed either in the Ca^2+ assay or in the GPR17 cAMP assay, described further below.
CHO hGPR17 were defrosted and seeded at a density of 20,000 cells per well into black 384-well plates with clear bottom. Cells were incubated overnight at 37° C. in a humidified atmosphere of 5% CO2. Sixteen to twenty hours after seeding, CHO hGPR17 were loaded for 60 min with Calcium 5 dye, a cytosolic Ca^2+ indicator fluorescent dye, according to manufacturer's instructions. Fluorescent signal relative to cytosolic Ca^2+ concentration was recorded over time at room temperature in FLIPR Tetra reader. Cells were first incubated for 30 minutes at room temperature in HBSS Hepes buffer pH 7.4 containing increasing concentrations of test compounds (typically 10^−11 M to 10^−6M). Then, 50 nM MDL29,951, a GPR17 agonist, was added to the cells. Inhibitory effects of varying concentrations test compounds were measured and resulting pIC50S were determined. All incubations were performed in duplicate and results were compared to a concentration response curve of GPR17 agonist and antagonist reference compounds. Analysis and curve fitting were performed in ActivityBase XE using XLfit 4-parameter logistic equation y=A+((B−A)/(1+((C/x)^D))) where A, B, C and D stand for minimum y, maximum y, IC50 and slope, respectively.
The activities of the Example compounds tested are depicted in the table 6 in Section B-IIB below. The activity ranges A, B and C refer to pIC50 values in the Ca^2+ assay as follows: “A”: pIC50 6.5≤x<7.5, “B”: pIC50 7.5≤x<8.5, “C”: 8.5≤pIC50
Target sequence in this assay (Q13304 29-367 limits assumed): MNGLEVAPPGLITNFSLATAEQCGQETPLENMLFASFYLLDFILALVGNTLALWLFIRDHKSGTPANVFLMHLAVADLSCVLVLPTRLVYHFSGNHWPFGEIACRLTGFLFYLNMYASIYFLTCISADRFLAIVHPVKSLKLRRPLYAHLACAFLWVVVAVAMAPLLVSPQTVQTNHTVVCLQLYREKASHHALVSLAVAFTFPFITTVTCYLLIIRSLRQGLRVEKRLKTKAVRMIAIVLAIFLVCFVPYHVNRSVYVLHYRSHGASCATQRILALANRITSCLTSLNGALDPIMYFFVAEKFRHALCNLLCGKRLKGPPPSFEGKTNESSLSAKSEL

GPR17 [3] = target: T1, GPR17; test: cAMP accumulation functional assay (HTRF) in CHO hGPR17 cells; assay type: cell-based; design: host or cells: Flp-In T-REx CHO cells, expression induced with doxycycline; conditions: Schild analysis against MDL29,951, 5 μM forskolin, activity range, read-out: cAMP assay pA2 (converted)
Method: as §1
Target sequence in this assay (Q13304 29-367 limits assumed): as above
GPR17 activation can also recruit Gi-type G-protein signaling, resulting in a decrease of intracellular cyclic adenosine monophosphate (cAMP). Intracellular cAMP changes can be measured using the HTRF cAMP dynamic assay kit from CisBio (Codolet, France). Using homogenous time-resolved fluorescence technology (HTRF), the assay is based on competition between native cAMP produced by cells and cAMP labelled with the dye d2. The tracer binding was determined by an anti-cAMP antibody labeled with cryptate.
CHO hGPR17 were detached with PBS containing EDTA and dispatched in black 384-well plates with 5,000 cells per well. Cells were first incubated for 30 minutes at room temperature in HBSS Hepes (pH 7.4) containing vehicle or varying concentrations of test GPR17 antagonist/inverse agonist compounds. Then, a dose response curve of MDL29,951 GPR17 agonist (typically from 10^−5M to 10^−10M) was added on vehicle and on each test GPR17 antagonist/inverse agonist compound concentration in a final volume of 20 μL HBSS Hepes buffer (pH 7.4) containing 1% DMSO, 5 μM forskolin and 0.1 mM IBMX. After 60 minutes incubation at room temperature, the reaction is terminated and the cells lysed by adding the d2 detection reagent and the cryptate reagent in 10 μL lysis buffer each according to manufacturer's instructions. After 60 minutes incubation, changes in cAMP concentrations are measured according to manufacturer's instructions using an Envision plate reader with laser excitation. All incubations were performed in duplicate. Data was analyzed using GraphPad Prism software using the 4-parameter logistic equation to measure MDL29,951 pEC50s in absence and presence of GPR17 antagonist/inverse agonist test compounds. Dose ratio (DR) were plotted against antagonist concentrations and Schild analysis provided estimated affinity pA2 of GPR17 antagonist/inverse agonist test compounds.
The activities of the Example compounds tested are depicted in the table below. The activity ranges A, B and C refer to pA2 values in the cAMP assay as follows: “A”: pA2 6.5≤x<7.5, “B”: pA2 7.5≤x<8.5, “C”: 8.5≤pA2.

| IC50 (GPR17 [2]) [nM] | Kb (GPR17 [3]) [nM] | SMILES | amounts needed in the assays (GPR17 activating ligand) (GPR17 [1]) |
| --- | --- | --- | --- |
| 31.6 to 316 | 3.16 to 31.6 | O=S(=O)(Nc1ccc(I)nc1)c1c[nH]c2cc(Cl)ccc12 [Example I-21, 6-chloro-N-(6-iodopyridin-3-yl)-1H-indole-3-sulfonamide] |  |
| 3.16 to 31.6 | ≤ 3.16 | O=S(=O)(Nc1cnc(Cl)cc1F)c1c[nH]c2cc(Cl)ccc12 [Example I-25, 6-chloro-N-(6-chloro-4-fluoropyridin-3-yl)-1H-indole-3-sulfonamide] |  |
| ≤ 3.16 | ≤ 3.16 | COc1nc(Cl)c(F)cc1NS(=O)(=O)c1c[nH]c2nc(Cl)ccc12 [Example I-32, 6-chloro-N-(6-chloro-5-fluoro-2-methoxypyridin-3-yl)-1H-pyrrolo[2,3-b]pyridine-3-sulfonamide] |  |
| 31.6 to 316 | 31.6 to 316 | COc1nc(F)c(NS(=O)(=O)c2c[nH]c3nc(Cl)ccc23)cc1F [Example I-33, 6-chloro-N-(2,5-difluoro-6-methoxypyridin-3-yl)-1H-pyrrolo[2,3-b]pyridine-3-sulfonamide] |  |
| 3.16 to 31.6 | 3.16 to 31.6 | COc1nc(OC)c(NS(=O)(=O)c2c[nH]c3nc(Cl)ccc23)cc1F [Example I-34, 6-chloro-N-(5-fluoro-2,6-dimethoxypyridin-3-yl)-1H-pyrrolo[2,3-b]pyridine-3-sulfonamide] |  |

The remaining lines, values behind:

| SMILES | IC50 (GPR17 [2]) [nM] | Kb (GPR17 [3]) [nM] | amounts needed in the assays (GPR17 activating ligand) (GPR17 [1]) |
| --- | --- | --- | --- |
| NCC(=O)CCC(=O)O [Example 5-ALA, 5 amino levulinic acid] |  |  | three digit micromolar range |
| COc1nc(OC)c(NS(=O)(=O)c2c[nH]c3cc(Cl)ccc23)cc1F [Example I-6, 6-chloro-N-(5-fluoro-2,6-dimethoxypyridin-3-yl)-1H-indole-3-sulfonamide] | ≤ 3.16 | ≤ 3.16 |  |
| Cc1nc(F)c(NS(=O)(=O)c2c[nH]c3cc(Cl)ccc23)cc1F [Example I-7, 6-chloro-N-(2,5-difluoro-6-methylpyridin-3-yl)-1H-indole-3-sulfonamide] | 3.16 to 31.6 | 3.16 to 31.6 |  |
| COc1nc(Br)cnc1NS(=O)(=O)c1c[nH]c2cc(Cl)ccc12 [Example I-10, N-(5-bromo-3-methoxypyrazin-2-yl)-6-chloro-1H-indole-3-sulfonamide] | ≤ 3.16 | ≤ 3.16 |  |
| COc1ccc(NS(=O)(=O)c2c[nH]c3cc(Cl)ccc23)cn1 [Example I-15, 6-chloro-N-(6-methoxypyridin-3-yl)-1H-indole-3-sulfonamide] | 31.6 to 316 | 31.6 to 316 |  |
| O=S(=O)(Nc1cnc(Br)cn1)c1c[nH]c2cc(Cl)ccc12 [Example I-18, N-(5-bromopyrazin-2-yl)-6-chloro-1H-indole-3-sulfonamide] | 31.6 to 316 | 31.6 to 316 |  |
| NCc1[nH]cc(CCC(=O)O)c1CC(=O)O [PBG, porphobilinogen] |  |  | mM range |
